Reference: PubChem BioAssay AID1963842 (Molecular Pharmacology Branch, DTP, NCI, 2024)

Test system: 677734-321-R-J1-PDC complex spheroid viability
Assay: Anticancer human tumor 677734-321-R-J1-PDC patient-derived soft tissue sarcoma cell line growth inhibition [POLQ]
Details: for IC50: curve of first compound; for viability, T/C: stronger effect = lower value
Experimental: Multicellular complex tumor spheroid response to Polymerase (POL) inhibitors (novobiocin, ART-558, RP6685) in combination with a variety of drugs and investigational agents in selected tumor cell lines
The POL inhibitors (novobiocin, ART-558, and RP6685) were evaluated both individually and in combination with standard of care and investigational anticancer small molecules within a complex spheroid model of solid tumors. . Complex spheroids include a stromal component modeled by human endothelial cells (HUVEC) and fibroblasts modeled by human mesenchymal stem cells (MSCs). The concentration ranges selected for each drug and investigational agent were based upon clinically achievable concentrations if the clinical Cmax of the agent was known.
Compounds. The drugs and investigational agents: novobiocin (NSC847541), ART-558 (NSC835418), RP-6685 (NSC848927), peposertib (NSC802822), ceralasertib (NSC780249), elimusertib (NSC800525), camonsertib (NSC841442), AZD-1390 (NSC803789), olaparib (NSC753686), talazoparib (NSC767125), rucaparib (NSC756644), sotorasib (NSC818433), MRTX-1133 (NSC836407), SN-38 (NSC673596), topotecan (NSC609699), epotoside (NSC141540), doxorubicin (NSC123127), gemcitabine (NSC613327), 5-fluorouracil (NSC19893), paclitaxel (NSC125973), vemurafenib (NSC761431), MSA-2 (NSC828583), SN-011 (NSC837082), adavosertib (NSC754352), prexasertib (NSC758257), carboplatin (NSC241240) and oxaliplatin (NSC266046), were obtained from the National Cancer Institute (NCI) Developmental Therapeutics Program Chemical Repository (21). The FDA-approved anticancer drug set is available from the Developmental Therapeutics Program at https://dtp.cancer.gov/organization/dscb/obtaining/. […] The stock solutions were prepared in dimethyl sulfoxide (DMSO, Sigma-Aldrich, St. Louis, MO, cat. D2650), except for the platinum compounds which were prepared in saline (Quality Biological, Gaithersburg, MD, cat. 114-055-101), at 800-fold the tested concentration and stored at -70 degrees C prior to their use. All drugs and investigational agents were tested over a range starting from a high concentration at or near the clinical Cmax and decreasing in half-log increments. If the clinical Cmax for an agent had not been determined, the highest concentration tested was 10 microM, except for SN-38, which was tested at a high concentration of 1 microM.
Cell Culture. All cells were maintained in an incubator at 37 degrees C and 5% CO2 with 95% humidity. The PDC lines were cultured according to standard operating procedures established by the NCI PDMR (https://pdmr.cancer.gov). Table 3 of the manuscript, lists the cell lines along with the number of the three cell types plated to form the mct-spheroids and media for tumor cell growth. After thawing, all PDC lines, except 997537-175-T-J1-PDC and 415267-285-R-J2-PDC, were cultured in Matrigel-coated flasks prepared with a working solution of 1X Ham's F-12 nutrient mix, without supplementation (Thermo Fisher Scientific, cat. 11765054), 100 U/mL penicillin-streptomycin (Thermo Fisher Scientific, cat. 15140122), and 2.5% Matrigel (Corning Inc., Corning, NY, cat. 354248) for the first three passages. The two PDC lines 997537-175-T-J1-PDC and 415267-285-R-J2-PDC were cultured on uncoated flasks. The 857933-349-R-J2-PDC line was cultured in 6C/Colon 1B media containing advanced DMEM/F-12 (Thermo Fisher Scientific, cat. 12634028), 10 mM HEPES (Thermo Fisher Scientific, cat. 15630080), 1X GlutaMAX supplement (Thermo Fisher Scientific, cat. 35050061), 0.1 mg/mL primocin (InvivoGen, San Diego, CA, cat. ant-pm-2), 10% defined fetal bovine serum, heat inactivated (HyClone Laboratories Inc., Logan, UT, cat. SH30070.03HI), 50% L-WRN conditioned media (ATCC, cat. CRL-3276), 1.25 mM N-Acetyl-L-cysteine (Sigma-Aldrich, cat. A9165), 10 mM nicotinamide (Sigma-Aldrich, cat. N0636), 1X B-27 supplement (Thermo Fisher Scientific, cat. 17504044), 1X N-2 supplement (Thermo Fisher Scientific, cat. […]

[1] = second compound 0.0316 µM, first compound 0.0316 µM
[2] = second compound 0.0316 µM, first compound 0.1 µM
[3] = second compound 0.0316 µM, first compound 0.316 µM
[4] = second compound 0.0316 µM, first compound 1 µM
[5] = second compound 0.0316 µM, first compound 3.16 µM
[6] = second compound 0.0316 µM, first compound 10 µM
[7] = second compound 0.1 µM, first compound 0.0316 µM
[8] = second compound 0.1 µM, first compound 0.1 µM
[9] = second compound 0.1 µM, first compound 0.316 µM
[10] = second compound 0.1 µM, first compound 1 µM
[11] = second compound 0.1 µM, first compound 3.16 µM
[12] = second compound 0.1 µM, first compound 10 µM
[13] = second compound 0.316 µM, first compound 0.0316 µM
[14] = second compound 0.316 µM, first compound 0.1 µM
[15] = second compound 0.316 µM, first compound 0.316 µM
[16] = second compound 0.316 µM, first compound 1 µM
[17] = second compound 0.316 µM, first compound 3.16 µM
[18] = second compound 0.316 µM, first compound 10 µM
[19] = second compound 1 µM, first compound 0.0316 µM
[20] = second compound 1 µM, first compound 0.1 µM
[21] = second compound 1 µM, first compound 0.316 µM
[22] = second compound 1 µM, first compound 1 µM
[23] = second compound 1 µM, first compound 3.16 µM
[24] = second compound 1 µM, first compound 10 µM
[25] = second compound 3.16 µM, first compound 0.0316 µM
[26] = second compound 3.16 µM, first compound 0.1 µM
[27] = second compound 3.16 µM, first compound 0.316 µM
[28] = second compound 3.16 µM, first compound 1 µM
[29] = second compound 3.16 µM, first compound 3.16 µM
[30] = second compound 3.16 µM, first compound 10 µM
[31] = second compound 10 µM, first compound 0.0316 µM
[32] = second compound 10 µM, first compound 0.1 µM
[33] = second compound 10 µM, first compound 0.316 µM
[34] = second compound 10 µM, first compound 1 µM
[35] = second compound 10 µM, first compound 3.16 µM
[36] = second compound 10 µM, first compound 10 µM
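Also: spheroids exposed to compounds for one week.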
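For viability, T/C in this document: 100% = vehicle DMSO treated spheroids.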

CCc1cc2c(N3CCc4c(cc(Cn5ccnc5)cc4-c4cn(C)nc4C(F)(F)F)C3=O)ccnc2c(OC)n1 + Cc1cccc(N(C)C(=O)C2C(O)CCN2c2nc(C)cc(C(F)(F)F)c2C#N)c1
IC50 (second compound 0.0316 µM): > 10 µM | IC50 (second compound 0.1 µM): 9.08 µM | IC50 (second compound 0.316 µM): 5.19 µM | IC50 (second compound 1 µM): 7.18 µM | IC50 (second compound 3.16 µM): 4.89 µM | IC50 (second compound 10 µM): 1.98 µM | viability, T/C [1]: 104% | viability, T/C [2]: 94.4% | viability, T/C [3]: 86.5% | viability, T/C [4]: 96.9% | viability, T/C [5]: 60.5% | viability, T/C [6]: 58.8% | viability, T/C [7]: 113% | viability, T/C [8]: 104% | viability, T/C [9]: 99.4% | viability, T/C [10]: 84% | viability, T/C [11]: 59.7% | viability, T/C [12]: 49.7% | viability, T/C [13]: 100% | viability, T/C [14]: 110% | viability, T/C [15]: 92.3% | viability, T/C [16]: 85.8% | viability, T/C [17]: 59.8% | viability, T/C [18]: 36.5% | viability, T/C [19]: 94.7% | viability, T/C [20]: 79% | viability, T/C [21]: 100% | viability, T/C [22]: 77.8% | viability, T/C [23]: 75.1% | viability, T/C [24]: 40.2% | viability, T/C [25]: 110% | viability, T/C [26]: 79.9% | viability, T/C [27]: 93.2% | viability, T/C [28]: 76.1% | viability, T/C [29]: 64.6% | viability, T/C [30]: 31.6% | viability, T/C [31]: 87.9% | viability, T/C [32]: 67.9% | viability, T/C [33]: 60.5% | viability, T/C [34]: 65.8% | viability, T/C [35]: 46.3% | viability, T/C [36]: 30.5%

O=C(Nc1ccc(O)c(NS(=O)(=O)c2ccc(F)cc2)c1)c1ccc(-c2ccccc2)cc1 + Cc1cccc(N(C)C(=O)C2C(O)CCN2c2nc(C)cc(C(F)(F)F)c2C#N)c1
IC50 (second compound 0.0316 µM): 4.14 µM | IC50 (second compound 0.1 µM): 5.42 µM | IC50 (second compound 0.316 µM): 3.71 µM | IC50 (second compound 1 µM): 3.42 µM | IC50 (second compound 3.16 µM): 2.08 µM | IC50 (second compound 10 µM): 1.47 µM | viability, T/C [1]: 89.4% | viability, T/C [2]: 92.9% | viability, T/C [3]: 97.1% | viability, T/C [4]: 96.7% | viability, T/C [5]: 60.3% | viability, T/C [6]: 16% | viability, T/C [7]: 98.5% | viability, T/C [8]: 95.8% | viability, T/C [9]: 101% | viability, T/C [10]: 92.7% | viability, T/C [11]: 75.6% | viability, T/C [12]: 20.9% | viability, T/C [13]: 101% | viability, T/C [14]: 97.1% | viability, T/C [15]: 99.3% | viability, T/C [16]: 70.6% | viability, T/C [17]: 58% | viability, T/C [18]: 19.3% | viability, T/C [19]: 103% | viability, T/C [20]: 90.2% | viability, T/C [21]: 101% | viability, T/C [22]: 101% | viability, T/C [23]: 52.5% | viability, T/C [24]: 15.6% | viability, T/C [25]: 84.3% | viability, T/C [26]: 110% | viability, T/C [27]: 87.6% | viability, T/C [28]: 75.7% | viability, T/C [29]: 35.5% | viability, T/C [30]: 17.9% | viability, T/C [31]: 76.8% | viability, T/C [32]: 95.1% | viability, T/C [33]: 74.6% | viability, T/C [34]: 59.1% | viability, T/C [35]: 31.5% | viability, T/C [36]: 11.4%

CNCc1ccc(-c2[nH]c3cc(F)cc4c3c2CCNC4=O)cc1 + Nc1ccc(C#CCN(C(=O)Cc2ncc(C(F)(F)F)cc2C(F)(F)F)c2ccc(F)cc2)nn1
IC50 (second compound 0.0316 µM): > 10 µM | IC50 (second compound 0.1 µM): > 10 µM | IC50 (second compound 0.316 µM): > 10 µM | IC50 (second compound 1 µM): > 10 µM | IC50 (second compound 3.16 µM): > 10 µM | IC50 (second compound 10 µM): > 10 µM | viability, T/C [1]: 90.2% | viability, T/C [2]: 99.6% | viability, T/C [3]: 100% | viability, T/C [4]: 81% | viability, T/C [5]: 101% | viability, T/C [6]: 81.6% | viability, T/C [7]: 113% | viability, T/C [8]: 106% | viability, T/C [9]: 107% | viability, T/C [10]: 100% | viability, T/C [11]: 106% | viability, T/C [12]: 61.8% | viability, T/C [13]: 100% | viability, T/C [14]: 109% | viability, T/C [15]: 106% | viability, T/C [16]: 127% | viability, T/C [17]: 94.5% | viability, T/C [18]: 80.1% | viability, T/C [19]: 118% | viability, T/C [20]: 86.4% | viability, T/C [21]: 106% | viability, T/C [22]: 91.8% | viability, T/C [23]: 88.7% | viability, T/C [24]: 67.4% | viability, T/C [25]: 97.7% | viability, T/C [26]: 109% | viability, T/C [27]: 109% | viability, T/C [28]: 113% | viability, T/C [29]: 101% | viability, T/C [30]: 63.5% | viability, T/C [31]: 97.4% | viability, T/C [32]: 99.3% | viability, T/C [33]: 89.2% | viability, T/C [34]: 114% | viability, T/C [35]: 107% | viability, T/C [36]: 63.6%
